Source: patent US12258327B2, “5-membered heteroaryl-containing aminopyridine compounds as EGFR inhibitors” (YUHAN CORPORATION, priority 2021, dated 2025)
Read-outs that look alike come from different tables or passages of the source.

Assays:
EGFR del19/T790M/C797S = EGFR del19/T790M/C797S (Homo sapiens, UniProt P00533, C797S/DEL746-750/T790M); test: Biochemical EGFR kinase assay (Lance Ultra TR-FRET), triple mutant del19/T790M/C797S
Procedure, shortened: (§1)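 Kinase activity is measured by TR-FRET phosphopeptide detection. Compounds span 0.003 μM to 10 μM; the 1 h reaction at room temperature is quenched with EDTA, then labelled antibody (2 nM) is incubated 60 min before reading.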

EGFR L858R/T790M/C797S = EGFR L858R/T790M/C797S (Homo sapiens, UniProt P00533, C797S/L858R/T790M); test: Biochemical EGFR kinase assay (Lance Ultra TR-FRET), triple mutant L858R/T790M/C797S
Procedure, shortened: as §1

EGFR del19/C797S = EGFR del19/C797S (Homo sapiens, UniProt P00533, C797S/DEL746-750); test: Biochemical EGFR kinase assay (Lance Ultra TR-FRET), double mutant del19/C797S
Chain of EGFR del19/C797S (P00533 with tags, fused parts or gaps DEL746-750/C797S): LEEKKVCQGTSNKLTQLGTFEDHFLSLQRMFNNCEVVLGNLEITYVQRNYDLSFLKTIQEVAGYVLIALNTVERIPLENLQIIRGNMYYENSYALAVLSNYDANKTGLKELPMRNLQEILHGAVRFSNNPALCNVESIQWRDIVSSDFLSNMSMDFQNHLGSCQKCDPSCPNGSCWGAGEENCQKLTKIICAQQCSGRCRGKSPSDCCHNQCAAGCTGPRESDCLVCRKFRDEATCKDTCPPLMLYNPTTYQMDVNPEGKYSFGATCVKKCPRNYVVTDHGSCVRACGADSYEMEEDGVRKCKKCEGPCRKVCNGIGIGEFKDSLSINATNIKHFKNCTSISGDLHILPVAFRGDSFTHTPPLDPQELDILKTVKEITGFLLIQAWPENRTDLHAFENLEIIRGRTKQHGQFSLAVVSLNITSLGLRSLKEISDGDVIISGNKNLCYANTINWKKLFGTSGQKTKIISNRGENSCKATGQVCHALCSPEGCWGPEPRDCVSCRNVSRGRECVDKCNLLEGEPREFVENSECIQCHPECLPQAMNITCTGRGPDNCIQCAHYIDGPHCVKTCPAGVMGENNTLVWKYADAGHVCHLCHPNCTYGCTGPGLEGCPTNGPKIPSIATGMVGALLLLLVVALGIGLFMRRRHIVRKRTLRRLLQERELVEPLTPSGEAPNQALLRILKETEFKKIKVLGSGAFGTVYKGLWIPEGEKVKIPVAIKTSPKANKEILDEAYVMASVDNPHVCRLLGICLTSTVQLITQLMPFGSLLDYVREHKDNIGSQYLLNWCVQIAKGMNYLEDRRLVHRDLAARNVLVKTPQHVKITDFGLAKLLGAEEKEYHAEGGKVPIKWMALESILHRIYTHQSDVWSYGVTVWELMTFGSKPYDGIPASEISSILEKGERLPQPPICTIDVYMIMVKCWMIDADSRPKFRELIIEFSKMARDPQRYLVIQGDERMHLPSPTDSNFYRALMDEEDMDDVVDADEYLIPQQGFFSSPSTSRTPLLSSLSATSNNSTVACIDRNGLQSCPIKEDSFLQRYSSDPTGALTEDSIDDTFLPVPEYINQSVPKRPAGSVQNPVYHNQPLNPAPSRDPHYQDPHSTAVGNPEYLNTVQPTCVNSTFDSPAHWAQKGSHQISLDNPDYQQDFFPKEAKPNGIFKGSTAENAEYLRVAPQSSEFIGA
Procedure, shortened: as §1

EGFR L858R/C797S = EGFR L858R/C797S (Homo sapiens, UniProt P00533, C797S/L858R); test: Biochemical EGFR kinase assay (Lance Ultra TR-FRET), double mutant L858R/C797S
Chain of EGFR L858R/C797S (P00533 25-1210 C797S/L858R): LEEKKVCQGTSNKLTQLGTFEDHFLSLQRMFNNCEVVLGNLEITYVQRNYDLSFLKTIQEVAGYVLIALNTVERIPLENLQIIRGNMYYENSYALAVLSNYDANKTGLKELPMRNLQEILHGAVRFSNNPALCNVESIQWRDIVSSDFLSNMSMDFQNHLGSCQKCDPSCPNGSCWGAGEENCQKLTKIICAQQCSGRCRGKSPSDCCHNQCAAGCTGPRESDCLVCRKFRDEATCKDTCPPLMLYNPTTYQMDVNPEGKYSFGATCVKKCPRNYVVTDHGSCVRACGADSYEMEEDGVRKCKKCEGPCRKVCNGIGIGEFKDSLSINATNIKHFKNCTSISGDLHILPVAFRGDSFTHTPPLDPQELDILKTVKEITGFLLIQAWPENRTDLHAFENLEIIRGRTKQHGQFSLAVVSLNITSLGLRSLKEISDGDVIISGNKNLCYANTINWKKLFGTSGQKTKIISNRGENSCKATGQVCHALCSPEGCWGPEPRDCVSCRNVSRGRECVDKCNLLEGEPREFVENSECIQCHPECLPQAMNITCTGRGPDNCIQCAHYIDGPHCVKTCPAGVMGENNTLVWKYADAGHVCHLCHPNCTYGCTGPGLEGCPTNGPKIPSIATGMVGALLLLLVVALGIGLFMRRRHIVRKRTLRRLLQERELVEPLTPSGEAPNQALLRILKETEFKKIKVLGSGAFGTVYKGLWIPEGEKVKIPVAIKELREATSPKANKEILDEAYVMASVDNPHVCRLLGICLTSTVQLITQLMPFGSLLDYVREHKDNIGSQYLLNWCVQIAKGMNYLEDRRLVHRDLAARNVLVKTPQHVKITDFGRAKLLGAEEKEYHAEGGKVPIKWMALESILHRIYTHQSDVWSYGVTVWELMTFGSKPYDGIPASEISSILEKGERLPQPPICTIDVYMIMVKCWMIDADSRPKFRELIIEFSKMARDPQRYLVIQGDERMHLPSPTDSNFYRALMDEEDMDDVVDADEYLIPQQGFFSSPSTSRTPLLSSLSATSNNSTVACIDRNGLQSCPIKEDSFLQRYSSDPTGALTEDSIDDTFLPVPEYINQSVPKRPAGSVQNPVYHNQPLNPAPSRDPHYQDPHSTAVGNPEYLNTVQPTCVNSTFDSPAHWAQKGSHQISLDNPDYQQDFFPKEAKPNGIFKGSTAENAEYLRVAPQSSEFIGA
Procedure, shortened: as §1

EGFR wildtype (WT) = EGFR wildtype (WT) (Homo sapiens, UniProt P00533); test: Biochemical EGFR kinase assay (Lance Ultra TR-FRET), wildtype
Chain of EGFR wildtype (WT) (P00533 25-1210): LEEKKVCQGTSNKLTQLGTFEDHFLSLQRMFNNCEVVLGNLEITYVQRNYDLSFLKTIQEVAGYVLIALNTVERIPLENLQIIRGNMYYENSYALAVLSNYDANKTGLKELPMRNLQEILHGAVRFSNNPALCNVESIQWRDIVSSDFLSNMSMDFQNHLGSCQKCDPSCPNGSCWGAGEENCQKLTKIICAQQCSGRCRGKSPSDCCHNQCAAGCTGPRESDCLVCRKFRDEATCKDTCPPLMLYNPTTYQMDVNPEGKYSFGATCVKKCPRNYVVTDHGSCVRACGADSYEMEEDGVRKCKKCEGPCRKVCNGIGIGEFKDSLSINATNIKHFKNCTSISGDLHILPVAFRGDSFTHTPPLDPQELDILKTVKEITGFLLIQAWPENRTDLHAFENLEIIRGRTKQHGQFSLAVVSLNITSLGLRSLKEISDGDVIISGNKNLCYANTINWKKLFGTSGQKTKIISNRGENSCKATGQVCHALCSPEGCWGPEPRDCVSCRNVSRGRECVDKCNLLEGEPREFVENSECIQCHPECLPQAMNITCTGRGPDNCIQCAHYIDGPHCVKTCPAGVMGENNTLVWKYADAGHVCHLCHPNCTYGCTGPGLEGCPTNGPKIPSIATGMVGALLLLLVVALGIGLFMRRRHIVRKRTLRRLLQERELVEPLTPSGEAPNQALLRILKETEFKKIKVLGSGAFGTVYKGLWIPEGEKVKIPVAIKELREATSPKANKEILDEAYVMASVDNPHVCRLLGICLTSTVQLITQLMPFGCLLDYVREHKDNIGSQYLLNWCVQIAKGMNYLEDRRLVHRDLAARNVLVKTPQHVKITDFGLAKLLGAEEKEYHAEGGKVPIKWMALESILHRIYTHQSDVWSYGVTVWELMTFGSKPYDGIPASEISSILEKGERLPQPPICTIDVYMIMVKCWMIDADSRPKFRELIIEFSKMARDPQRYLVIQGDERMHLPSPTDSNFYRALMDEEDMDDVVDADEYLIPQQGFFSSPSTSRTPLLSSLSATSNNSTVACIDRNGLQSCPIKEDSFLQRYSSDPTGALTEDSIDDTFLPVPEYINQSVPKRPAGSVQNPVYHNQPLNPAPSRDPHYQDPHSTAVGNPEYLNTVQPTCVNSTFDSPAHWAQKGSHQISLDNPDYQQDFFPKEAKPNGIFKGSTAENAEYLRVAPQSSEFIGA
Procedure, shortened: as §1

[1] = Km ATP, read-out: IC50 del19/T790M/C797S (nM) Km ATP
[2] = Km ATP, read-out: IC50 L858R/T790M/C797S (nM) Km ATP
[3] = Km ATP, read-out: IC50 del19/C797S (nM) Km ATP
[4] = Km ATP, read-out: IC50 L858R/C797S (nM) Km ATP
[5] = Km ATP, read-out: IC50 WT (nM) Km ATP
[6] = IC50 del19/T790M/C797S (nM) 100 μM ATP, 100 μM ATP
[7] = IC50 L858R/T790M/C797S (nM) 100 μM ATP, 100 μM ATP
[8] = IC50 del19/C797S (nM) 100 μM ATP, 100 μM ATP
[9] = IC50 L858R/C797S (nM) 100 μM ATP, 100 μM ATP
[10] = IC50 WT (nM) 100 μM ATP, 100 μM ATP

Chain of EGFR del19/T790M/C797S (P00533 with tags, fused parts or gaps DEL746-750/T790M/C797S): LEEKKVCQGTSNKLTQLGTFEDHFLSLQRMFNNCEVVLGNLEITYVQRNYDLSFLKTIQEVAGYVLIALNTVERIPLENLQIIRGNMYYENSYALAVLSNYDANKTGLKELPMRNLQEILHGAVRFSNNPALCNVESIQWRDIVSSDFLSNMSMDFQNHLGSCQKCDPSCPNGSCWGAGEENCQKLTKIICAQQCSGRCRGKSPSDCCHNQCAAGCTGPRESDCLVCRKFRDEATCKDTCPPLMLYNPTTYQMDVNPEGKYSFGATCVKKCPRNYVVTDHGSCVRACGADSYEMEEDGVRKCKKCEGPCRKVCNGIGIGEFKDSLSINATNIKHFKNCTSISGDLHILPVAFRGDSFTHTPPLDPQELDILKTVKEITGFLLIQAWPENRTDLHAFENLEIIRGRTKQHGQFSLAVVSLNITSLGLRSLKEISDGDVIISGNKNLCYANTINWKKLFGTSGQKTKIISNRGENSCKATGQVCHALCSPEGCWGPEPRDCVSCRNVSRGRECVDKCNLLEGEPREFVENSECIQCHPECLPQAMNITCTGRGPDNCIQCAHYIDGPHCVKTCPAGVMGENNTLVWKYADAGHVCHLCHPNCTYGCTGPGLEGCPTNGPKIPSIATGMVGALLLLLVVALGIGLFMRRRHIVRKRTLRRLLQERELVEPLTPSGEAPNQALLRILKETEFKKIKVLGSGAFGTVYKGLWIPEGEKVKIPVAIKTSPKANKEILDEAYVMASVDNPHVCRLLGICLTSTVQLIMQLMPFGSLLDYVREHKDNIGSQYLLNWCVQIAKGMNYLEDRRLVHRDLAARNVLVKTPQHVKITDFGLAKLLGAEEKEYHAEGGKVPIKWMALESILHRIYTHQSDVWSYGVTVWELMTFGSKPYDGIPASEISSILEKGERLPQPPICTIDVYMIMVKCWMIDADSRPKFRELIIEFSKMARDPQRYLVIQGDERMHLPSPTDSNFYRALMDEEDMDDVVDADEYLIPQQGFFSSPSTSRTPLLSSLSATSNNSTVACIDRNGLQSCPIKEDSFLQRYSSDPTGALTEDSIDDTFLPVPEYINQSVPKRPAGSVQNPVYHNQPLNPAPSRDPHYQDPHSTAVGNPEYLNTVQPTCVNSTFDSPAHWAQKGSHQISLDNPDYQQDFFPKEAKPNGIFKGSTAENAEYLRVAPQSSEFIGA

Compound | IC50 (EGFR del19/T790M/C797S; [1]) [nM] | IC50 (EGFR L858R/T790M/C797S; [2]) [nM] | IC50 (EGFR del19/C797S; [3]) [nM] | IC50 (EGFR L858R/C797S; [4]) [nM] | IC50 (EGFR wildtype (WT); [5]) [nM] | IC50 (EGFR del19/T790M/C797S; [6]) [nM] | IC50 (EGFR L858R/T790M/C797S; [7]) [nM] | IC50 (EGFR del19/C797S; [8]) [nM] | IC50 (EGFR L858R/C797S; [9]) [nM] | IC50 (EGFR wildtype (WT); [10]) [nM] | IC50 (EGFR del19/T790M/C797S; Km ATP, read-out: IC50 del19/T790M/C797S, Km ATP) [nM] | IC50 (EGFR L858R/T790M/C797S; Km ATP, read-out: IC50 L858R/T790M/C797S, Km ATP) [nM] | IC50 (EGFR del19/C797S; Km ATP, read-out: IC50 del19/C797S, Km ATP) [nM] | IC50 (EGFR L858R/C797S; Km ATP, read-out: IC50 L858R/C797S, Km ATP) [nM] | IC50 (EGFR wildtype (WT); Km ATP, read-out: IC50 WT, Km ATP) [nM]
O=S(=O)(C1CC1)n1cc(-c2nccc(Nc3cc(N[C@H]4CC[C@@H](C(F)F)CC4)c(-c4ccn(C(F)F)n4)cn3)n2)cn1 [Example 157, N^2-(2-(1-(Cyclopropylsulfonyl)-1H-pyrazol-4-yl)pyrimidin-4-yl)-5-(1-(difluoromethyl)-1H-pyrazol-3-yl)-N^4-((1s,4s)-4-(difluoromethyl)cyclohexyl)pyridine-2,4-diamine] | 30.9 | 9.7 | 125 | 55.7 | 408 | – | – | – | – | – | – | – | – | – | –
CC1(CNc2cc(Nc3ccnc(-c4cnn(S(=O)(=O)C5CC5)c4)n3)ncc2-c2ccn(C(F)F)n2)CCC(O)CC1 (centres unmarked) [Example 128, 4-(((2-((2-(1-(Cyclopropylsulfonyl)-1H-pyrazol-4-yl)pyrimidin-4-yl)amino)-5-(1-(difluoromethyl)-1H-pyrazol-3-yl)pyridin-4-yl)amino)methyl)-4-methylcyclohexan-1-ol] | – | – | – | – | – | 3.1 | 6.4 | 40.8 | 1120 | > 10000 | – | – | – | – | –
C[C@]1(O)CC[C@@H](Nc2cc(Nc3ccnc(-c4cnn(CC(F)(F)F)c4)n3)ncc2-c2ccn(C(F)F)n2)CC1 [Example 137, (1s,4s)-4-((5-(1-(Difluoromethyl)-1H-pyrazol-3-yl)-2-((2-(1-(2,2,2-trifluoroethyl)-1H-pyrazol-4-yl)pyrimidin-4-yl)amino)pyridin-4-yl)amino)-1-methylcyclohexan-1-ol] | 0.5 | 0.2 | 24.3 | 35.9 | 1780 | 1.2 | 0.9 | 65.7 | 269 | > 10000 | – | – | – | – | –
O=S(=O)(C1CC1)n1cc(-c2nccc(Nc3cc(OC4CCC(O)CC4)c(-c4ccn(C(F)F)n4)cn3)n2)cn1 (centres unmarked) [Example 66, 4-((2-((2-(1-(Cyclopropylsulfonyl)-1H-pyrazol-4-yl)pyrimidin-4-yl)amino)-5-(1-(difluoromethyl)-1H-pyrazol-3-yl)pyridin-4-yl)oxy)cyclohexan-1-ol] | 0.3 | 0.3 | 7.7 | 5 | 38.9 | 0.4 | 2.7 | 4.5 | 80.1 | > 10000 | – | – | – | – | –
O=S(=O)(C1CC1)n1cc(-c2nccc(Nc3cc(N[C@@H]4CC[C@H](O)C4)c(-c4ccn(C(F)F)n4)cn3)n2)cn1 [Example 13, (1S,3R)-3-((2-((2-(1-(Cyclopropylsulfonyl)-1H-pyrazol-4-yl)pyrimidin-4-yl)amino)-5-(1-(difluoromethyl)-1H-pyrazol-3-yl)pyridin-4-yl)amino)cyclopentan-1-ol] | – | – | – | – | – | 0.7 | 1 | 3.8 | 12.4 | 5620 | – | – | – | – | –
CNC(=O)[C@H]1CC[C@@H](Nc2cc(Nc3ccnc(-c4cnn(S(=O)(=O)C5CC5)c4)n3)ncc2-c2ccn(C(F)F)n2)CC1 [Example 24, (1s,4s)-4-((2-((2-(1-(Cyclopropylsulfonyl)-1H-pyrazol-4-yl)pyrimidin-4-yl)amino)-5-(1-(difluoromethyl)-1H-pyrazol-3-yl)pyridin-4-yl)amino)-N-methylcyclohexane-1-carboxamide] | 0.3 | 0.2 | 0.7 | 2 | 6.9 | 0.5 | 0.3 | 0.8 | 14.3 | > 10000 | – | – | – | – | –
CC(C)(O)c1nc(-c2cnc(Nc3ccnc(-c4cnn(S(=O)(=O)C5CC5)c4)n3)cc2N[C@H]2CC[C@@H](O)CC2)cs1 [Example 76, (1s,4s)-4-((2-((2-(1-(Cyclopropylsulfonyl)-1H-pyrazol-4-yl)pyrimidin-4-yl)amino)-5-(2-(2-hydroxypropan-2-yl)thiazol-4-yl)pyridin-4-yl)amino)cyclohexan-1-ol] | – | – | – | – | – | 0.7 | 2.3 | 0.4 | 3 | 1520 | – | – | – | – | –
C[C@]1(O)CC[C@@H](Nc2cc(Nc3ccnc(-c4cnn(C5CC5)c4)n3)ncc2-c2ccn(C(F)F)n2)CC1 [Example 140, (1s,4s)-4-((2-((2-(1-Cyclopropyl-1H-pyrazol-4-yl)pyrimidin-4-yl)amino)-5-(1-(difluoromethyl)-1H-pyrazol-3-yl)pyridin-4-yl)amino)-1-methylcyclohexan-1-ol] | 1 | 1.1 | 27.3 | 7.1 | 137 | 3.7 | 3.4 | 37.2 | 91.5 | 8960 | – | – | – | – | –
C[C@]1(O)CC[C@@H](Nc2nc(Nc3ccnc(-c4cnn(S(=O)(=O)C5CC5)c4)c3)ncc2-c2ccn(CCC(F)(F)F)n2)CC1 [Example 359, (1s,4s)-4-((2-((2-(1-(Cyclopropylsulfonyl)-1H-pyrazol-4-yl)pyridin-4-yl)amino)-5-(1-(3,3,3-trifluoropropyl)-1H-pyrazol-3-yl)pyrimidin-4-yl)amino)-1-methylcyclohexan-1-ol] | – | – | – | – | – | – | – | – | – | – | 0.6 | 1.6 | 15.4 | 18.3 | 208
COc1cc(-c2nccc(Nc3cc(N[C@H]4CC[C@@](C)(O)CC4)c(-c4ccn(C(F)F)n4)cn3)n2)ccn1 [Example 169, (1s,4s)-4-((5-(1-(Difluoromethyl)-1H-pyrazol-3-yl)-2-((2-(2-methoxypyridin-4-yl)pyrimidin-4-yl)amino)pyridin-4-yl)amino)-1-methylcyclohexan-1-ol] | 20.1 | 15.5 | 110 | 43.4 | 325 | – | – | – | – | – | – | – | – | – | –
O=S(=O)(C1CC1)n1cc(-c2nccc(Nc3cc(N[C@H]4CC[C@@H](NCCF)CC4)c(-c4csc(N5CCOCC5)n4)cn3)n2)cn1 [Example 126, N^2-(2-(1-(Cyclopropylsulfonyl)-1H-pyrazol-4-yl)pyrimidin-4-yl)-N^4-((1s,4s)-4-((2-fluoroethyl)amino)cyclohexyl)-5-(2-morpholinothiazol-4-yl)pyridine-2,4-diamine] | 0.7 | 0.4 | 21 | – | 112 | 0.8 | 1.3 | 30.3 | 379 | > 10000 | – | – | – | – | –
CS(=O)(=O)N1CC=C(c2nccc(Nc3cc(N[C@H]4CC[C@@](C)(O)CC4)c(-c4ccn(C(F)F)n4)cn3)n2)CC1 [Example 156, (1s,4s)-4-((5-(1-(Difluoromethyl)-1H-pyrazol-3-yl)-2-((2-(1-(methylsulfonyl)-1,2,3,6-tetrahydropyridin-4-yl)pyrimidin-4-yl)amino)pyridin-4-yl)amino)-1-methylcyclohexan-1-ol] | 35.2 | 3.2 | > 10000 | 339 | 986 | – | – | – | – | – | – | – | – | – | –
C[C@]1(O)CC[C@@H](Nc2cc(Nc3ccnc(-c4cnn(S(=O)(=O)C5CC5)c4)n3)ncc2-n2ccc(C(F)(F)F)n2)CC1 [Example 167, (1s,4s)-4-((2-((2-(1-(Cyclopropylsulfonyl)-1H-pyrazol-4-yl)pyrimidin-4-yl)amino)-5-(3-(trifluoromethyl)-1H-pyrazol-1-yl)pyridin-4-yl)amino)-1-methylcyclohexan-1-ol] | 0.6 | 0.4 | 58.9 | 47.7 | 129 | – | – | – | – | – | – | – | – | – | –
